# Test results as given in patent publication US6737383B1, “Herbicidal oxadiazolidines” (priority 1999, dated 2004).
# How the values were obtained:
# [1] = tested on: morningglory; assay: Test B pre/postemergence morningglory; format: in vivo, Ipomoea hederacea
# How it was run: (§1)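 Response is a visual 0-to-10 score relative to untreated plants, where 0 means no effect and 10 means complete control, taken twelve to sixteen days after application. Treatments went onto soil at planting and onto foliage of 1- to 4-leaf plants, using a surfactant-containing non-phytotoxic solvent.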
# [2] = tested on: purple nutsedge; assay: Test B pre/postemergence purple nutsedge; format: in vivo, Cyperus rotundus
# How it was run: as §1
# [3] = tested on: crabgrass; assay: Test B pre/postemergence crabgrass; format: in vivo, Digitaria sanguinalis
# How it was run: as §1
# [4] = tested on: bamyardgrass; assay: Test B flood test barnyardgrass; format: in vivo, Echinochloa crus-galli
# How it was run: (§2)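 Read-out is a visual response score from 0 (no effect) to 10 (complete control), assigned by comparison with untreated controls. Treatment was applied at the 2-leaf stage, and plants stayed in the greenhouse for twelve to sixteen days before scoring.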
# [5] = tested on: sugar beet; assay: Test B pre/postemergence sugar beet; format: in vivo, Beta vulgaris
# How it was run: as §1
# [6] = tested on: velvetleaf; assay: Test B pre/postemergence velvetleaf; format: in vivo, Abutilon theophrasti
# How it was run: as §1
# [7] = tested on: cocklebur; assay: Test B pre/postemergence cocklebur; format: in vivo, Xanthium strumarium
# How it was run: as §1
# [8] = tested on: pigweed; assay: Test B pre/postemergence pigweed; format: in vivo, Amaranthus retroflexus
# How it was run: as §1
# [9] = tested on: blackgrass; assay: Test B pre/postemergence blackgrass; format: in vivo, Alopecurus myosuroides
# How it was run: as §1
# [10] = tested on: smallflower flatsedge; assay: Test B flood test smallflower flatsedge; format: in vivo, Cyperus difformis
# How it was run: as §2
# [11] = tested on: surinam grass; assay: Test B pre/postemergence surinam grass; format: in vivo, Brachiaria decumbens
# How it was run: as §1
# [12] = tested on: corn; assay: Test B pre/postemergence corn; format: in vivo, Zea mays
# How it was run: as §1
# [13] = tested on: rape; assay: Test B pre/postemergence rape; format: in vivo, Brassica napus
# How it was run: as §1
# [14] = tested on: wild oat; assay: Test B pre/postemergence wild oat; format: in vivo, Avena fatua
# How it was run: as §1
# [15] = tested on: soybean; assay: Test B pre/postemergence soybean; format: in vivo, Glycine max
# How it was run: as §1
# [16] = tested on: giant foxtail; assay: Test B pre/postemergence giant foxtail; format: in vivo, Setaria faberii
# How it was run: as §1
# [17] = Preemergence, Rate 62 g/ha, scale of 0 to 10 where 0 is no effect and 10 is complete control
# [18] = Preemergence, Rate 250 g/ha, scale of 0 to 10 where 0 is no effect and 10 is complete control
# [19] = Preemergence, Rate 500 g/ha, scale of 0 to 10 where 0 is no effect and 10 is complete control
# [20] = Rate 62 g/ha, Postemergence, scale of 0 to 10 where 0 is no effect and 10 is complete control
# [21] = Rate 125 g/ha, Postemergence, scale 0 to 10
# [22] = Rate 125 g/ha, Preemergence, scale of 0 to 10 where 0 is no effect and 10 is complete control
# [23] = Rate 500 g/ha, Postemergence, scale 0 to 10, 0 no effect, 10 complete control
# [24] = Rate 62 g/ha, headed Pre-emergence (flood test species), scale 0 to 10 (0 no effect, 10 complete control)
# [25] = Rate 125 g/ha, Pre-emergence, flood test species, scale 0 to 10 where 0 is no effect and 10 is complete control
# [26] = Rate 250 g/ha, Pre-emergence, flood-test species, scale 0 to 10, 0 is no effect, 10 is complete control
# [27] = Rate 500 g/ha, Pre-emergence, flood test species, scale 0 to 10 (0 no effect, 10 complete control)
compound,measurement,setting,value
CCCCc1ccc(N(C(=O)n2oc(=O)n(-c3ccccc3C)c2=O)C(C)C)cc1 [Compound 229],Morningglory plant response rating,[1]; [17],0
same,Morningglory plant response rating,[1]; [18],0
same,"Plant response rating, Morningglory",[1]; [19],0
same,Morningglory plant response rating,[1]; [20],0
same,Morningglory plant response rating,[1]; [21],0
same,Morningglory plant response rating,[1]; [22],0
same,"Plant response rating (0 to 10; 0 is no effect, 10 is complete control), Morningglory","[1]; Rate 250 g/ha, Postemergence",0
same,Morningglory plant response rating,[1]; [23],0
same,Nutsedge plant response rating,[2]; [17],0
same,Nutsedge plant response rating,[2]; [18],0
same,"Plant response rating, Nutsedge",[2]; [19],0
same,Nutsedge plant response rating,[2]; [20],0
same,Nutsedge plant response rating,[2]; [21],0
same,Nutsedge plant response rating,[2]; [22],0
same,"Plant response rating (0 to 10; 0 is no effect, 10 is complete control), Nutsedge","[2]; Rate 250 g/ha, Postemergence",0
same,Nutsedge plant response rating,[2]; [23],0
same,Crabgrass plant response rating,[3]; [17],0
same,Crabgrass plant response rating,[3]; [18],0
same,"Plant response rating, Crabgrass",[3]; [19],0
same,Crabgrass plant response rating,[3]; [20],0
same,Crabgrass plant response rating,[3]; [21],0
same,Crabgrass plant response rating,[3]; [22],0
same,"Plant response rating (0 to 10; 0 is no effect, 10 is complete control), Crabgrass","[3]; Rate 250 g/ha, Postemergence",0
same,Crabgrass plant response rating,[3]; [23],0
same,Barnyardgrass plant response rating,[4]; [24],0
same,Barnyardgrass plant response rating,[4]; [25],0
same,Barnyardgrass plant response rating,[4]; [26],0
same,Barnyardgrass plant response rating,[4]; [27],0
same,Sugarbeets plant response rating,[5]; [17],0
same,Sugarbeets plant response rating,[5]; [18],0
same,"Plant response rating, Sugarbeets",[5]; [19],0
same,Sugarbeets plant response rating,[5]; [20],0
same,Sugarbeets plant response rating,[5]; [21],0
same,Sugarbeets plant response rating,[5]; [22],0
same,"Plant response rating (0 to 10; 0 is no effect, 10 is complete control), Sugarbeets","[5]; Rate 250 g/ha, Postemergence",0
same,Sugarbeets plant response rating,[5]; [23],0
same,Velvetleaf plant response rating,[6]; [17],0
same,Velvetleaf plant response rating,[6]; [18],0
same,"Plant response rating, Velvetleaf",[6]; [19],0
same,Velvetleaf plant response rating,[6]; [20],0
same,Velvetleaf plant response rating,[6]; [21],0
same,Velvetleaf plant response rating,[6]; [22],0
same,"Plant response rating (0 to 10; 0 is no effect, 10 is complete control), Velvetleaf","[6]; Rate 250 g/ha, Postemergence",0
same,Velvetleaf plant response rating,[6]; [23],2
same,Cocklebur plant response rating,[7]; [17],0
same,Cocklebur plant response rating,[7]; [18],0
same,"Plant response rating, Cocklebur",[7]; [19],0
same,Cocklebur plant response rating,[7]; [20],0
same,Cocklebur plant response rating,[7]; [21],0
same,Cocklebur plant response rating,[7]; [22],0
same,"Plant response rating (0 to 10; 0 is no effect, 10 is complete control), Cocklebur","[7]; Rate 250 g/ha, Postemergence",0
same,Cocklebur plant response rating,[7]; [23],0
same,Redroot pigweed plant response rating,[8]; [17],0
same,Redroot pigweed plant response rating,[8]; [18],0
same,"Plant response rating, Redroot pigweed",[8]; [19],0
same,Redroot pigweed plant response rating,[8]; [20],0
same,Redroot pigweed plant response rating,[8]; [21],0
same,Redroot pigweed plant response rating,[8]; [22],0
same,"Plant response rating (0 to 10; 0 is no effect, 10 is complete control), Redroot pigweed","[8]; Rate 250 g/ha, Postemergence",0
same,Redroot pigweed plant response rating,[8]; [23],0
same,Blackgrass plant response rating,[9]; [17],0
same,Blackgrass plant response rating,[9]; [18],0
same,"Plant response rating, Blackgrass",[9]; [19],0
same,Blackgrass plant response rating,[9]; [20],0
same,Blackgrass plant response rating,[9]; [21],0
same,Blackgrass plant response rating,[9]; [22],0
same,"Plant response rating (0 to 10; 0 is no effect, 10 is complete control), Blackgrass","[9]; Rate 250 g/ha, Postemergence",0
same,Blackgrass plant response rating,[9]; [23],0
same,S. Flatsedge plant response rating,[10]; [24],0
same,S. Flatsedge plant response rating,[10]; [25],0
same,S. Flatsedge plant response rating,[10]; [26],0
same,S. Flatsedge plant response rating,[10]; [27],0
same,B. signalgrass plant response rating,[11]; [17],0
same,B. signalgrass plant response rating,"[11]; Preemergence, Rate 250 g/ha, scale 0 to 10, 0 is no effect, 10 is complete control",0
same,"Plant response rating, B. signalgrass",[11]; [19],0
same,B. signalgrass plant response rating,[11]; [20],0
same,B. signalgrass plant response rating,"[11]; Rate 125 g/ha, Postemergence, scale 0 (no effect) to 10 (complete control)",0
same,B. signalgrass plant response rating,[11]; [22],0
same,"Plant response rating (0 to 10; 0 is no effect, 10 is complete control), B. signalgrass","[11]; Rate 250 g/ha, Postemergence",0
same,B. signalgrass plant response rating,[11]; [23],0
same,Corn plant response rating,[12]; [17],0
same,Corn plant response rating,[12]; [18],0
same,"Plant response rating, Corn",[12]; [19],0
same,Corn plant response rating,[12]; [20],0
same,Corn plant response rating,[12]; [21],0
same,Corn plant response rating,[12]; [22],0
same,"Plant response rating (0 to 10; 0 is no effect, 10 is complete control), Corn","[12]; Rate 250 g/ha, Postemergence",0
same,Corn plant response rating,[12]; [23],0
same,Rape plant response rating,[13]; [17],0
same,Rape plant response rating,[13]; [18],0
same,"Plant response rating, Rape",[13]; [19],0
same,Rape plant response rating,[13]; [20],0
same,Rape plant response rating,[13]; [21],0
same,Rape plant response rating,[13]; [22],0
same,"Plant response rating (0 to 10; 0 is no effect, 10 is complete control), Rape","[13]; Rate 250 g/ha, Postemergence",0
same,Rape plant response rating,[13]; [23],0
same,Wild oats plant response rating,[14]; [17],0
same,Wild oats plant response rating,[14]; [18],0
same,"Plant response rating, Wild oats",[14]; [19],0
same,Wild oats plant response rating,[14]; [20],0
same,Wild oats plant response rating,[14]; [21],0
same,Wild oats plant response rating,[14]; [22],0
same,"Plant response rating (0 to 10; 0 is no effect, 10 is complete control), Wild oats","[14]; Rate 250 g/ha, Postemergence",0
same,Wild oats plant response rating,[14]; [23],0
same,Soybean plant response rating,[15]; [17],0
same,Soybean plant response rating,[15]; [18],0
same,"Plant response rating, Soybean",[15]; [19],0
same,Soybean plant response rating,[15]; [20],0
same,Soybean plant response rating,[15]; [21],0
same,Soybean plant response rating,[15]; [22],0
same,"Plant response rating (0 to 10; 0 is no effect, 10 is complete control), Soybean","[15]; Rate 250 g/ha, Postemergence",1
same,Soybean plant response rating,[15]; [23],2
same,Giant foxtail plant response rating,[16]; [17],0
same,Giant foxtail plant response rating,[16]; [18],0
same,"Plant response rating, Giant foxtail",[16]; [19],0
same,Giant foxtail plant response rating,[16]; [20],0
same,Giant foxtail plant response rating,[16]; [21],0
same,Giant foxtail plant response rating,[16]; [22],0
same,"Plant response rating (0 to 10; 0 is no effect, 10 is complete control), Giant foxtail","[16]; Rate 250 g/ha, Postemergence",0
same,Giant foxtail plant response rating,[16]; [23],0
